Assay results from DBAASP.
In brackets after ≈: the same amount, converted by molar mass. Several values for one entry are separate records, joined by “and”; a condition that tells them apart may be missing. Equal values may be shown once.

Columns and labels:
Test in all cases: ≥ marks a high value that may be exact or a test limit, other limits are often not marked, values filed in µg/mL are converted to µM
[1] = system: Bacillus subtilis KCTC 1021
[2] = system: Bacillus subtilis KCTC 1022
[3] = system: Staphylococcus aureus USA 300
[4] = system: Staphylococcus aureus CCARM 3089
[5] = system: Vibrio alginolyticus
[6] = system: Salmonella typhimurium CVCC 542
[7] = system: Staphylococcus aureus CCARM 3114
[8] = system: Bacillus subtilis 168
[9] = system: Staphylococcus aureus KCTC 1916
[10] = system: Escherichia coli K-12
[11] = system: Pseudomonas aeruginosa PAO1
[12] = system: Pseudomonas aeruginosa KCTC 2004
[13] = system: Salmonella typhimurium KCTC 1926
[14] = system: Lactococcus garvieae
[15] = system: Escherichia coli KCTC 1682
[16] = system: Glaesserella parasuis
[17] = system: Acinetobacter baumannii CCARM 12005
[18] = system: Aeromonas salmonicida
[19] = system: Bacillus subtilis KCTC 3068
[20] = system: Pseudomonas aeruginosa KCTC 2513
[21] = system: Pseudomonas aeruginosa
[22] = system: Staphylococcus aureus
[23] = system: Staphylococcus aureus CCARM 3108
[24] = system: Enterococcus faecalis ATCC 29212
[25] = system: Staphylococcus aureus CCARM 3126
[26] = system: Pseudomonas aeruginosa KCTC 1637
[27] = system: Enterococcus faecalis
[28] = system: Salmonella sp.
[29] = system: Escherichia coli KCTC 2571
[30] = system: Escherichia coli KCTC 2593
[31] = system: Escherichia coli
[32] = system: Staphylococcus aureus KCTC 1621
[33] = system: Escherichia coli mcr
[34] = system: Pseudomonas aeruginosa CCARM 2002
[35] = system: Staphylococcus aureus KCTC 3881
[36] = system: Salmonella typhimurium CCARM 8003
[37] = system: Escherichia coli CCARM 1229
[38] = system: Streptococcus iniae
[39] = system: Actinobacillus pleuropneumoniae
[40] = system: Staphylococcus aureus CCARM 3090
[41] = system: Aeromonas salmonicida NCTC 7812
[42] = system: Staphylococcus epidermidis KCTC 1917
[43] = system: Staphylococcus aureus ATCC 29213
[44] = system: Shigella flexneri
[45] = system: Escherichia coli SBS 363
[46] = system: Micrococcus luteus CIP 5345
[47] = system: Botrytis cinerea
[48] = system: Fusarium oxysporum
[49] = system: Staphylococcus aureus 3551
[50] = system: Campylobacter coli
[51] = system: Pseudomonas aeruginosa 3552
[52] = system: Escherichia coli ATCC 33694
[53] = system: Acinetobacter baumannii
[54] = system: Campylobacter jejuni
[55] = system: Staphylococcus aureus 4716
[56] = system: Acinetobacter baumannii KCTC 2508
[57] = system: Bacillus subtilis ATCC 6633
[58] = system: Trichosporon beigelii KCTC 7707
[59] = system: Staphylococcus epidermidis KCTC 3096
[60] = system: Staphylococcus aureus 1870
[61] = system: Streptococcus pyogenes KCTC 3096
[62] = system: Campylobacter lari
[63] = system: Bacillus subtilis KCTC 1918
[64] = system: Candida albicans TIMM 1768

Work on `CC[C@H](C)[C@H](NC(=O)CNC(=O)[C@H](CCCNC(=N)N)NC(=O)[C@H](Cc1ccccc1)NC(=O)[C@@H](NC(=O)[C@H](Cc1cnc[nH]1)NC(=O)[C@H](Cc1cnc[nH]1)NC(=O)[C@H](Cc1ccccc1)NC(=O)[C@@H](N)Cc1ccccc1)[C@@H](C)CC)C(=O)N[C@H](C(=O)N[C@@H](Cc1cnc[nH]1)C(=O)N[C@H](C(=O)NCC(=O)N[C@@H](CCCCN)C(=O)N[C@H](C(=O)N[C@H](C(=O)N[C@@H](Cc1cnc[nH]1)C(=O)N[C@@H](CCCNC(=N)N)C(=O)N[C@@H](CC(C)C)C(=O)N[C@H](C(=O)N[C@H](C(=O)NCC(=O)O)[C@@H](C)O)C(C)C)[C@@H](C)CC)[C@@H](C)O)C(C)C)C(C)C` [FFHHIFRGIVHVGKTIHRLVTG] yielded an MIC [1] of 2 µM (≈ 5.14 µg/mL), an MIC [2] of 1 µM (≈ 2.57 µg/mL) and an MIC [3] of 3.1 µM (≈ 7.97 µg/mL). The MIC [4] was 8 µM (≈ 20.6 µg/mL), the MIC [5] was 1.21 µM (≈ 3.1 µg/mL) and the MIC [6] was 6.22 µM (≈ 16 µg/mL). It also gave an MIC [7] of 4 µM (≈ 10.3 µg/mL), an MIC [8] of 12.5 µM (≈ 32.2 µg/mL) and an MIC [9] of 1 µM (≈ 2.57 µg/mL). For the same compound, the MIC [10] was 12.5 µM (≈ 32.2 µg/mL), the MIC [11] was 50 µM (≈ 129 µg/mL) and the MIC [12] was 2 µM (≈ 5.14 µg/mL). For the same compound, the MIC [13] was 2 µM (≈ 5.14 µg/mL), the MIC [14] was 1.21 µM (≈ 3.1 µg/mL) and the MIC [15] was 2 µM (≈ 5.14 µg/mL). The MIC [16] was 3.11 µM (≈ 8 µg/mL), the MIC [17] was 2 µM (≈ 5.14 µg/mL) and the MIC [18] was 1.21 µM (≈ 3.1 µg/mL). For the same compound, the MIC [19] was 2 µM (≈ 5.14 µg/mL), the MIC [20] was 2 µM (≈ 5.14 µg/mL) and the MIC [21] was 4.86 µM and 12.4 µM. For the same compound, the MIC [22] was 1.21 µM (≈ 3.1 µg/mL), the MIC [23] was 4 µM (≈ 10.3 µg/mL) and the MIC [24] was 1.22 µM (≈ 3.14 µg/mL). The MIC [25] was 4 µM (≈ 10.3 µg/mL), the MIC [26] was 4 µM (≈ 10.3 µg/mL) and the MIC [27] was 1.21 µM (≈ 3.1 µg/mL). For the same compound, the MIC [28] was 6.22 µM (≈ 16 µg/mL), the MIC [29] was 1 µM (≈ 2.57 µg/mL) and the MIC [30] was 1 µM (≈ 2.57 µg/mL). It also gave an MIC [31] of 1.21 µM (≈ 3.1 µg/mL), an MIC [32] of 4 µM (≈ 10.3 µg/mL) and an MIC [33] of 2.2 µM (≈ 5.66 µg/mL). The MIC [34] was 2 µM (≈ 5.14 µg/mL), the MIC [35] was 2 µM (≈ 5.14 µg/mL) and the MIC [36] was 4 µM (≈ 10.3 µg/mL). It also gave an MIC [37] of 4 µM (≈ 10.3 µg/mL), an MIC [38] of 1.21 µM (≈ 3.1 µg/mL) and an MIC [39] of 6.22 µM (≈ 16 µg/mL). The MIC [40] was 8 µM (≈ 20.6 µg/mL), the MIC [41] was at least 77.8 µM and the MIC [42] was 2 µM (≈ 5.14 µg/mL). For the same compound, the MIC [43] was 2.43 µM (≈ 6.25 µg/mL) and the MIC [44] was 1.21 µM (≈ 3.1 µg/mL).
Compound `NCCCC[C@H](NC(=O)[C@@H]1CCCN1C(=O)[C@@H](N)CCCN=C(N)N)C(=O)N1CCC[C@H]1C(=O)N[C@@H](CCCN=C(N)N)C(=O)N1CCC[C@H]1C(=O)N[C@@H](CCCN=C(N)N)C(=O)N1CCC[C@H]1C(=O)N[C@@H](CCCN=C(N)N)C(=O)N1CCC[C@H]1C(=O)N[C@@H](CCC(=O)O)C(N)=O` [RPKPRPRPRPE] has an MIC [45] of at least 200 µM, an MIC [46] of at least 200 µM and an MIC [47] of at least 100 µM. For the same compound, the MIC [48] was at least 100 µM.
For `CC[C@H](C)[C@H](NC(=O)CNC(=O)[C@@H](NC(=O)[C@H](CCCCN)NC(=O)[C@H](CCCCN)NC(=O)[C@H](Cc1ccccc1)NC(=O)[C@H](CC(C)C)NC(=O)[C@H](CCCCN)NC(=O)[C@H](Cc1c[nH]c2ccccc12)NC(=O)[C@@H](N)CCCCN)[C@@H](C)CC)C(=O)NCC(=O)N[C@@H](CCCCN)C(=O)N[C@@H](Cc1ccccc1)C(=O)N[C@@H](CC(C)C)C(=O)N[C@@H](Cc1cnc[nH]1)C(=O)N[C@@H](CO)C(=O)N[C@@H](C)C(=O)N[C@@H](CCCCN)C(=O)N[C@@H](CCCCN)C(=O)N[C@@H](Cc1ccccc1)C(N)=O` [KWKLFKKIGIGKFLHSAKKF], the MIC [49] was 1 µM (≈ 2.4 µg/mL), the MIC [50] was 29.4 µM (≈ 70.7 µg/mL) and the MIC [51] was 8 µM and 4 µM. For the same compound, the MIC [13] was 0.78 µM (≈ 1.88 µg/mL), the MIC [15] was 3.12 µM (≈ 7.51 µg/mL) and the MIC [52] was 6.25 µM (≈ 15 µg/mL). It also gave an MIC [53] of 6.25 µM (≈ 15 µg/mL), an MIC [54] of 20.8 µM (≈ 50 µg/mL) and an MIC [55] of 4 µM (≈ 9.62 µg/mL). For the same compound, the MIC [56] was 12.5 µM (≈ 30.1 µg/mL), the MIC [26] was 1.56 µM (≈ 3.75 µg/mL) and the MIC [57] was 1.1 µM (≈ 2.65 µg/mL). It also gave an MIC [58] of 6.25 µM (≈ 15 µg/mL), an MIC [59] of 2.21 µM (≈ 5.3 µg/mL) and an MIC [32] of 3.12 µM (≈ 7.51 µg/mL). It also gave an MIC [60] of at least 64 µM, an MIC [61] of 0.78 µM (≈ 1.88 µg/mL) and an MIC [62] of 20.8 µM (≈ 50 µg/mL). It also gave an MIC [63] of 0.78 µM (≈ 1.88 µg/mL) and an MIC [64] of 12.5 µM (≈ 30.1 µg/mL).
